The target in assay [1] is T1, CALCRL:RAMP3 (adrenomedullin 2 (AM2) receptor) (Homo sapiens, UniProt O60896+Q16602).
T1 construct: host or cells: Freestyle 293F (CRE-bla reporter line)
In words: CALCRL:RAMP3 CRE-bla Freestyle 293F agonist screen (adrenomedullin 2 receptor). Format: cell-based. Particulars: CALCRL:RAMP3-CRE-bla Freestyle 293F cells, 5 hours incubation, FIG. 2. How it is done: Cell-based GPCR Profiling Assays. A representative CGRP agonist peptide according to the present invention, ACX017 (SEQ ID NO:1), was profiled against G-Protein Coupled Receptors (GPCRs) in cell-based assays to determine its agonist activity and dose response. Assays were performed using the SelectScreen® Cell-based GPCR Profiling Services by Life Technologies, Carlsbad, Calif.
CALCRL:RAMP3—CRE-bla Freestyle 293F—Agonist Screen (Adrenomedullin 2 Receptor)
CALCRL:RAMP3-CRE-bla Freestyle 293F cells were thawed and resuspended in Assay Media (DMEM, 10% dialyzed FBS, 25 mM HEPES pH 7.3, 0.1 mM NEAA, 100 U/mL/100 μg/mL Pen/Strep) to a concentration of 312,500 cells/mL. 32 μL of cell suspension (10,000 cells) was added to each well of a 384-well Poly-D-Lysine assay plate. Cells in Assay Media were incubated for 16-24 hours in the plate at 37° C./5% CO2 in a humidified incubator. 4 μL of a 10× serial dilution of Adrenomedullin or ACX017 were added to appropriate wells of the plate. […] The plate was read on a fluorescence plate reader. […]
Cell-free Control. […] It was used to determine the background fluorescence for both coumarin and fluorescein wavelengths. […]
Known Agonist. A known agonist titration was run on every plate for each cell-line to ensure the cell line was activated within an expected EC50/IC50 range as previously determined.

In assay [2] the test system is Sprague Dawley rats, food intake. Description: Four-day food intake study. Particulars: male Sprague Dawley rats on 60% kcal fat diet, 150 μg/kg intraperitoneal once daily for four days, food intake at 2, 4, 6, 8 hours post dose. Format: in vivo, rat. The procedure: Food Intake Study. The effect of a CGRP agonist, in accordance with the present invention, on food intake over time both within and across several days of treatment was evaluated. Study was performed by Explora BioLabs, San Diego, Calif. and animals treated in accordance with its IACUC standards.
On Day 0, 12 animals were randomized into two groups, Test and Control, to obtain similar body weight averages between groups. Animals were dosed via a single intraperitoneal injection, with either ACX017 (SEQ. ID NO:1) (Test group) or vehicle (Control group) each day, for four days. On each day, dosing was performed in the hour prior to the end of the light phase. ACX017 was dosed at 150 μg/kg in a 10% DMSO aqueous solution. Both ACX017 and vehicle were delivered as 1 mL/kg doses.
Food consumption was measured pre-dose and at 2, 4, 6 and 8 hours post dose. Food intake was measured by weighing food hoppers on Days 1, 2, 3 and four in the hour before end of the light phase and at 2, 4, 6 and 8 hours post dosing.
Average food intake for each of the Test and Control groups at each time point post dosing was determined. Cumulative food intake for each group over the entire test period (8 hours) is provided in graph form in FIGS. 1-4 for each of Days 1-4, respectively.

Structures are written as SMILES. Bridge positions count the residues as written; N and C are the ends. Peptide text beside a SMILES is read from it.

T1 sequence (Q16602 23-461): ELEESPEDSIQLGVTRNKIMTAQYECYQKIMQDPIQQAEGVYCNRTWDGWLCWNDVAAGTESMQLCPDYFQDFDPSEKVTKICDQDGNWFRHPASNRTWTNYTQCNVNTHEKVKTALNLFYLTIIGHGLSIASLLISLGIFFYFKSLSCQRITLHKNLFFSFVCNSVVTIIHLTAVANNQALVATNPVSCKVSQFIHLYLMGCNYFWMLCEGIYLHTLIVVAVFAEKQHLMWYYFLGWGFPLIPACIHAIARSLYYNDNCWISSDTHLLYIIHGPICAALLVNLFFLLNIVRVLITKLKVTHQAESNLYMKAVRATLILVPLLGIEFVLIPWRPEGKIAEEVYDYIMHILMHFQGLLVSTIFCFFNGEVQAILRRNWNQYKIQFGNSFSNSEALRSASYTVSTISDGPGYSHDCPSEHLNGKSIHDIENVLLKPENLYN
T1 sequence (O60896 24-148): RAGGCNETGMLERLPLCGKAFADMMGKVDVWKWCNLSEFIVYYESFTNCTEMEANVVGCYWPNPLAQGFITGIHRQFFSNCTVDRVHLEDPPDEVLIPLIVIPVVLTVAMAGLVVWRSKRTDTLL

With `CC(C)C[C@H](NC(=O)[C@H](CCCNC(=N)N)NC(=O)CNC(=O)[C@H](CC(C)C)NC(=O)[C@@H](NC(=O)[C@@H]1CSSC[C@H](NC(=O)[C@H](C)N)C(=O)N[C@@H](CC(=O)O)C(=O)N[C@@H]([C@@H](C)O)C(=O)N[C@@H](C)C(=O)N[C@@H]([C@@H](C)O)C(=O)N1)C(C)C)C(=O)N[C@@H](CO)C(=O)N[C@@H](CCC(N)=O)C(=O)N[C@@H](CCC(=O)O)C(=O)N[C@@H](CC(C)C)C(=O)N[C@@H](Cc1c[nH]cn1)C(=O)N[C@@H](CCCNC(=N)N)C(=O)N[C@@H](CC(C)C)C(=O)N[C@@H](CCC(N)=O)C(=O)N[C@H](C(=O)N[C@@H](Cc1ccc(O)cc1)C(=O)N1CCC[C@H]1C(=O)N[C@@H](CCCNC(=N)N)C(=O)N[C@H](C(=O)N[C@@H](CC(N)=O)C(=O)N[C@H](C(=O)NCC(=O)N[C@@H](CO)C(=O)N[C@@H](CCCCN)C(=O)N[C@@H](C)C(=O)N[C@@H](Cc1ccccc1)C(N)=O)C(C)C)[C@@H](C)O)[C@@H](C)O` [ACX017] (H-ACDTATCVLGRLSQELHRLQTYPRTNVGSKAF-NH2; disulfide 2-7), the “activation of the adrenomedullin 2 (AM2) receptor” value in assay [1] is given as “did not activate the adrenomedullin 2 (AM2) receptor”. The “appetite suppression (reduced food intake compared to Control group)” value in assay [2] is “suppressed appetite in the Test group for at least about four hours after dosing”.

The values above are taken from patent publication US9951115B2, “CGRP agonist peptides” (priority 2013, dated 2018).
